Literature values in publication PMC11012124, “Synthesis of Novel Triazine-Based Chalcones and 8,9-dihydro-7H-pyrimido[4,5-b][1,4]diazepines as Potential Leads in the Search of Anticancer, Antibacterial and Antifungal Agents” (International Journal of Molecular Sciences, 2024).

Tests used:
Design in all cases: method as in earlier work
Conditions in all cases: ref https://dtp.cancer.gov/dtpstandard/cancerscreeningdata/index.jsp, read-out: GI50 5-FU (NS 18893); cited from earlier work
[1] = system: HT29
[2] = system: K-562
[3] = system: MOLT-4
[4] = system: SW-620
[5] = system: MDA-MB-468
[6] = system: OVCAR-3
[7] = system: HL-60(TB)
[8] = system: LOX IMVI
[9] = system: IGROV1
[10] = system: SF-539
[11] = system: UO-31
[12] = system: RPMI-8226
[13] = system: SR
[14] = system: HCT-116
[15] = system: SNB-75
[16] = system: KM12
[17] = system: CAKI-1
[18] = system: HCT-15
[19] = system: HCC-2998
[20] = system: CCRF-CEM
[21] = system: HOP-92
[22] = system: U251
[23] = system: SN12C
[24] = system: MCF7
[25] = system: RXF 393
[26] = system: NCI-H522

O=c1[nH]cc(F)c(=O)[nH]1 [5-FU, 5-fluorouracil]
GI50 [1]: 180 nM | GI50 [2]: 3580 nM | GI50 [3]: 350 nM | GI50 [4]: 930 nM | GI50 [5]: 6610 nM | GI50 [6]: 20 nM | GI50 [7]: 2510 nM | GI50 [8]: 250 nM | GI50 [9]: 1220 nM | GI50 [10]: 60 nM | GI50 [11]: 1430 nM | GI50 [12]: 40 nM | GI50 [13]: 20 nM | GI50 [14]: 230 nM | GI50 [15]: 78700 nM | GI50 [16]: 210 nM | GI50 [17]: 70 nM | GI50 [18]: 110 nM | GI50 [19]: 50 nM | GI50 [20]: 9790 nM | GI50 [21]: 78000 nM | GI50 [22]: 910 nM | GI50 [23]: 500 nM | GI50 [24]: 80 nM | GI50 [25]: 2610 nM | GI50 [26]: 7280 nM
